Among the test systems are M19-MEL melanoma; HL-60(TB) leukemia; SK-MEL-28 melanoma; HOP-62 NSCLC; HCC-2998 colon; HCT-15 colon; NCI/ADR-RES ovarian.
Assay in all cases: DTP human tumour cell line panel, 48 h

The source of these data is PubChem BioAssay (NCI).

The structures appear in SMILES notation. Values joined by “and” are separate entries in the source; they are usually repeats but may differ in a detail not shown here. Equal values may be shown once.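 In this assay, cells in 96-well plates receive the compound at five concentrations for 48 hours. Endpoints are linearly interpolated between the surrounding concentrations. GI50 marks 50% less growth. At the TGI there is no net growth.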 Bounds are passed on as bounds.

For orientation: TGI means the concentration at which net growth stops. Read a high TGI as less potent growth arrest. With `Cc1ccc(/C=C(\NC(=O)c2ccccc2)c2nc3ccccc3[nH]2)cc1`, the TGI in the experiment on M19-MEL melanoma was > 100 µM; in the experiment on HL-60(TB) leukemia, 56.8 µM; in the experiment with SK-MEL-28 melanoma, > 100 µM; in the experiment on HOP-62 NSCLC it was > 100 µM; in the experiment on HCC-2998 colon it was > 100 µM; in the experiment on HCT-15 colon, > 100 µM.

As a reminder, the GI50 is the concentration giving 50% growth inhibition. As for `Cn1cc(-c2nc(-c3c[nH]c4ncccc34)cs2)c2ccccc21`, the GI50 was 10.7 µM in the experiment on HL-60(TB) leukemia; 48.8 µM with SK-MEL-28 melanoma; 19.7 µM in the experiment with HOP-62 NSCLC; 19.9 µM in the experiment with NCI/ADR-RES ovarian; 1.16 µM in the experiment with HCC-2998 colon; 1.47 µM with HCT-15 colon. Moreover, the total growth inhibition concentration (TGI) was > 100 µM in the experiment with HL-60(TB) leukemia; > 100 µM in the experiment on SK-MEL-28 melanoma; 68.4 µM in the experiment with HOP-62 NSCLC; > 100 µM with NCI/ADR-RES ovarian; > 100 µM in the experiment with HCC-2998 colon; > 100 µM in the experiment on HCT-15 colon.

With `CC1(C)N=C(N)N=C(N)N1c1ccc(Cl)cc1`, the GI50 with HL-60(TB) leukemia was > 100 µM; in the experiment with SK-MEL-28 melanoma, 53.5 µM; in the experiment on HOP-62 NSCLC, 3.54 µM; in the experiment with NCI/ADR-RES ovarian it was > 100 µM; in the experiment on HCC-2998 colon, 2.01 µM; with HCT-15 colon, 18.7 µM. Moreover, the concentration for total growth inhibition (TGI) with HL-60(TB) leukemia was > 100 µM; with SK-MEL-28 melanoma it was > 100 µM; in the experiment on HOP-62 NSCLC it was > 100 µM; in the experiment with NCI/ADR-RES ovarian, > 100 µM; in the experiment on HCC-2998 colon, 11.1 µM; with HCT-15 colon, > 100 µM.

Regarding `CC(C)(C)c1cc(NC(=O)Nc2ccc(-c3cn4c(n3)sc3cc(OCCN5CCOCC5)ccc34)cc2)no1`, the TGI with HL-60(TB) leukemia is > 100 µM and 24.8 µM and > 10 µM; with SK-MEL-28 melanoma, 17.5 µM and 12 µM and > 10 µM; in the experiment on HOP-62 NSCLC, 6.57 µM and 10 µM and > 10 µM; in the experiment with NCI/ADR-RES ovarian it was 24.7 µM and 19.2 µM and > 10 µM; in the experiment on HCC-2998 colon, 61.5 µM and 52.3 µM and > 10 µM; with HCT-15 colon it was > 91.9 µM and 14.8 µM and > 10 µM. The GI50 is 4.23 µM and 2.04 µM and > 10 µM with SK-MEL-28 melanoma; 1.88 µM and 1.19 µM and 2.29 µM in the experiment with HOP-62 NSCLC; 2.81 µM and 4.61 µM and 7.95 µM with NCI/ADR-RES ovarian; 14.1 µM and 11.7 µM and 7.03 µM in the experiment on HCC-2998 colon.

For the compound `C/C(=N\OCC(O)CNCCSCc1ccccc1)c1ccccc1Cl` (stereo not given), the TGI was 50.1 µM with HL-60(TB) leukemia; 37.5 µM with SK-MEL-28 melanoma; 38.8 µM with HOP-62 NSCLC; 41 µM in the experiment with NCI/ADR-RES ovarian; 40.9 µM with HCC-2998 colon; 41.1 µM in the experiment on HCT-15 colon.

As for `CC(=O)CC/C=C(\C)[C@H](O)[C@H](C)C(=O)O[C@H]1C[C@H](C)C=C2C=C[C@@]3(C)O[C@@H](O)CC(=O)[C@]3(C)[C@H]21`, the GI50 in the experiment with HL-60(TB) leukemia is 1.42 µM; in the experiment on SK-MEL-28 melanoma, 0.364 µM; in the experiment on HOP-62 NSCLC, 0.492 µM; in the experiment with NCI/ADR-RES ovarian, 1.44 µM; in the experiment on HCC-2998 colon, 0.394 µM; in the experiment with HCT-15 colon, 0.545 µM. Moreover, the TGI in the experiment with HL-60(TB) leukemia was 4.22 µM; in the experiment with SK-MEL-28 melanoma, 2.18 µM; in the experiment on HOP-62 NSCLC, 3.63 µM; in the experiment with NCI/ADR-RES ovarian it was 11.7 µM; with HCC-2998 colon it was 1.96 µM; with HCT-15 colon, 7.95 µM.

As for `CC(C)[C@@](O)(c1ccc2cc(OC(F)F)c(OC(F)F)cc2c1)c1cn[nH]n1`, the GI50 was 21.9 µM with HL-60(TB) leukemia; 17.1 µM in the experiment on SK-MEL-28 melanoma; 15.3 µM in the experiment with HOP-62 NSCLC; 18.5 µM in the experiment with NCI/ADR-RES ovarian; 18.2 µM in the experiment with HCC-2998 colon; 15.3 µM in the experiment on HCT-15 colon. Besides, the concentration for total growth inhibition (TGI) with HL-60(TB) leukemia turned out to be 66.6 µM; in the experiment on SK-MEL-28 melanoma, 33.9 µM; in the experiment on HOP-62 NSCLC it was 30.7 µM; with NCI/ADR-RES ovarian it was 50.9 µM; in the experiment with HCC-2998 colon, 35.8 µM; in the experiment with HCT-15 colon, 37.4 µM.

With `N/N=C(\c1nc2ccc([N+](=O)[O-])cc2[nH]c1=O)C(O)c1ccc(Cl)c(Cl)c1` (stereo not given), the concentration for total growth inhibition (TGI) with HL-60(TB) leukemia, with SK-MEL-28 melanoma, in the experiment on HOP-62 NSCLC, in the experiment with NCI/ADR-RES ovarian, in the experiment with HCC-2998 colon and in the experiment on HCT-15 colon was > 100 µM each time.

As for `O=C(NCCCl)Nc1cccnc1`, the TGI with HL-60(TB) leukemia was > 100 µM; in the experiment with SK-MEL-28 melanoma it was > 100 µM; in the experiment with HOP-62 NSCLC, > 100 µM; in the experiment on NCI/ADR-RES ovarian, 47.7 µM; in the experiment with HCC-2998 colon, 37.5 µM; with HCT-15 colon, 66.7 µM.

With `C#Cc1cccc(Nc2ncnc3ccc(OCCCCNCCS(C)(=O)=O)cc23)c1`, the GI50 in the experiment on HL-60(TB) leukemia is 5.37 µM; in the experiment on SK-MEL-28 melanoma it was 4.58 µM; in the experiment with HOP-62 NSCLC, 11.5 µM; in the experiment with NCI/ADR-RES ovarian, 11.4 µM; with HCC-2998 colon, 7.83 µM; in the experiment with HCT-15 colon, 7.41 µM. Besides, the total growth inhibition concentration (TGI) in the experiment on HL-60(TB) leukemia is 11.3 µM; with SK-MEL-28 melanoma, 8.56 µM; in the experiment on HOP-62 NSCLC it was > 25 µM; in the experiment with NCI/ADR-RES ovarian, > 25 µM; with HCC-2998 colon, > 25 µM; in the experiment with HCT-15 colon it was > 25 µM.

With `COc1ccc(NC2=C(I)C(=O)c3ncccc3C2=O)cc1`, the GI50 is 1.94 µM in the experiment with HL-60(TB) leukemia; 1.66 µM in the experiment with SK-MEL-28 melanoma; 0.457 µM with HOP-62 NSCLC; 1.57 µM in the experiment with NCI/ADR-RES ovarian; 1.45 µM with HCC-2998 colon; 0.516 µM with HCT-15 colon. Moreover, the concentration for total growth inhibition (TGI) with HL-60(TB) leukemia turned out to be 4.34 µM; in the experiment on SK-MEL-28 melanoma, 3.3 µM; in the experiment with HOP-62 NSCLC, 1.87 µM; with NCI/ADR-RES ovarian it was 4.41 µM; in the experiment on HCC-2998 colon, 3.01 µM; in the experiment on HCT-15 colon, 2.42 µM.

As to `O=C(c1ccc(C(F)(F)F)c(Cl)c1)N(Cc1ccc(Cl)cc1)c1ccc(-c2cc(C(F)(F)F)[nH]n2)c(O)c1`, the GI50 is 1.12 µM in the experiment on HL-60(TB) leukemia; 1.43 µM in the experiment on SK-MEL-28 melanoma; 1.02 µM in the experiment with HOP-62 NSCLC; 1.11 µM in the experiment on NCI/ADR-RES ovarian; 1.43 µM in the experiment on HCC-2998 colon; 0.777 µM in the experiment on HCT-15 colon. The TGI turned out to be 2.69 µM in the experiment with HL-60(TB) leukemia; 5.16 µM in the experiment with SK-MEL-28 melanoma; 2.33 µM in the experiment with HOP-62 NSCLC; 2.99 µM in the experiment on NCI/ADR-RES ovarian; 4.63 µM in the experiment with HCC-2998 colon; 1.97 µM with HCT-15 colon.

Take `O=c1c2ccccc2c(/C=N\NC2=NCCN2)c2oc3ccccc3n12`: the GI50 was 25.3 µM with HL-60(TB) leukemia; 20.7 µM with SK-MEL-28 melanoma; 28.6 µM in the experiment with HOP-62 NSCLC; > 100 µM in the experiment with NCI/ADR-RES ovarian; 12.9 µM in the experiment with HCC-2998 colon; 14.7 µM in the experiment on HCT-15 colon. The TGI with HL-60(TB) leukemia is 92.6 µM; with SK-MEL-28 melanoma it was 49 µM; in the experiment on HOP-62 NSCLC it was > 100 µM; in the experiment with NCI/ADR-RES ovarian it was > 100 µM; with HCC-2998 colon, 34.1 µM; in the experiment with HCT-15 colon, 62.1 µM.
